Source: patent publication EP0137426A2, “2-Mercaptothiazole derivatives, process for their preparation and utilization of 2-mercaptothiazole derivatives in pharmaceutical compounds” (BAYER AG, priority 1983, dated 1985)

Key:
[1] = system: TXA2; assay: Inhibition of thromboxane-induced isometric contraction of rabbit aortic strips (TXA2 generated from washed human platelets); format: cell-based, Kaninchen; details: Oryctolagus cuniculus, Platelet, thromboxane-induced vessel contraction, read-out: Hemmung (%) (x̄ ± SEM); for inhibition at 30 µg/mL: Konzentration 3 x 10^-5 g/ml
Description: Gefäßkonstriktorische Wirkung
Die gefäßkonstriktorische Wirkung von Thromboxan wird mit Hilfe der isometrischen Kontraktion von Kaninchenaortenstreifen gemessen (Furchtgott, R. F; Bhadrakom, S. J., Pharmacol. Exp. Ther. 108, 129 - 143, 1953). Männliche Kaninchen (Russen, Gewicht 1,8 - 2 kg) werden mit Pento- -barbital getötet. Die Brustaorta wird entnommen und spiral--förmig aufgeschnitten. Die Streifen (Breite 2 - 3 mm, Länge 3 cm) werden unter einer Spannung von 2 g in 10 ml - Organbädern, die Carbogen durchperlten Krebs-Henseleit-Puffer von 37°C enthalten, suspendiert. Zur Erhöhung der Spezifität der Methode enthält der Puffer folgende Inhibitoren (jeweils 100 µg/l): Propanololhydrochlorid, Phentolamin, Cyproheptadin, Atropin, Mebhydrolin und Indometacin. Die Kontraktionen werden nach Erreichen eines konstanten Basaltonus durch TXA2, generiert aus gewaschenen Human-Thrombozyten, ausgelöst.
Zur Präparation der Thrombozytensuspension wird Humanblut in 1 %iger EDTA-Lösung aufgenommen und bei 150 G 20 Minuten lang zentrifugiert. Das plättchenreiche Plasma wird abgehebert und bei 750 G für 20 Minuten zentrifugiert. Das plättchenarme Plasma wird abdekantiert und die verbleibenden Plättchen in Puffer (0,15 M NaCl, 0,15 M Tris/ HC1 pH 7.4, 77 mM EDTA; 90 : 8 : 2) aufgenommen.
Die Thromboxan-Generation erfolgt durch Stimulation der Plättchen mit Thrombin bei 37°C unter Rühren. Nach 30 sec wird die Plättchensuspension zu dem mit Prüfsubstanz bzw. Lösungsmittel vorbehandelten Aortenstreifen gegeben und damit die Kontraktionen ausgelöst. Die prozentuale Hemmung errechnet sich aus den entsprechenden Ausschlägen.
An den in der folgenden Tabelle 1 genannten Verbindungen wurde die spezifische Hemmung der durch Thromboxan induzierten Gefäßkontraktionen bestimmt.

[2] = system: TXA2; details: literature: Tanaka, Harada, Katori, Prostaglandins 17, 235, 1979; cited from earlier work
[3] = system: Thrombozyten; assay: Inhibition of collagen-induced platelet aggregation in platelet-rich plasma (turbidimetric, Born); format: cell-based; details: Homo sapiens, Konzentration 3 x 10^-5 g/ml, PRP, 37°C, read-out: Hemmung (%) (x̄ ± SEM)
Description: Thrombocytenaggregationshemmung
Für die Bestimmung der thrombocytenaggregationshemmenden Wirkung wird Blut von gesunden Spendern, die mindestens 14 Tage lang kein Medikament eingenommen hatten, verwendet. Das Blut wird in 3.8 %iger Natriumcitratlösung aufgenommen. Plättchenreiches Plasma (PRP) wird durch 20 min. lange Zentrifugation bei 150 G bei Raumtemperatur gewonnen (Jürgens/Beller: Klinische Methoden der Blutgerinnungsanalyse; Thieme-Verlag, Stuttgart 1959). Die Plättchenaggregation wird nach der turbidometrischen Methode (Born, G. V. R.: J. Physiol. 162 67, 1962) im Aggregometer bei 37°C bestimmt. Hierzu wird PRP mit Prüfsubstanz bei 37°C inkubiert und anschließend die Aggregation durch Zugabe einer Kollagensuspension ausgelöst. Die prozentuale Hemmung errechnet sich aus den entsprechenden Ausschlägen.
An den in der folgenden Tabelle 2 genannten Verbindungen wurde die Hemmung der Kollagen-induzierten Thrombozytenaggregation untersucht.

Row | Structure (SMILES) | inhibition at 30 µg/mL [1] [%] | inhibition at 30 µg/mL [3] [%] | also measured
1 | O=C(O)CCCSc1nc2cc(F)c(F)cc2s1 [Beispiel 11a] | 82 ± 1 | – | –
2 | CCOC(=O)c1c(C)cc2c(CO)n[nH]c(=O)c2c1C [Phthalazinol] | – | – | Wirkung als spezifischer TXA2-Antagonist [2]: nicht als spezifischer TXA2-Antagonist
3 | O=C(O)CCCCSc1nc(Cl)c(Cl)s1 [Beispiel 23] | 47 ± 10 | – | –
4 | O=C(O)CCCSc1nc(Cl)c(Cl)s1 [Beispiel 21] | 59 ± 6 | 69 | –
5 | O=C(O)CCCCSc1nc2ccccc2s1 [Beispiel 25] | 31 ± 18 | – | –
6 | O=C(O)CCCSc1nc2ccccc2s1 [Beispiel 9] | 84 ± 3 | 52 | inhibition at 100 µg/mL ([1]; Konzentration 1 x 10^-4 g/ml): 100%; inhibition at 10 µg/mL ([1]; Konzentration 1 x 10^-5 g/ml): 58 ± 7%; inhibition at 1 µg/mL ([1]; Konzentration 1 x 10^-6 g/ml): 16 ± 7%; inhibition at 3 µg/mL ([1]; Konzentration 3 x 10^-6 g/ml): 34 ± 6%
